{"source": "paper PMC5349767", "about": "(ACS chemical neuroscience, 2015)", "key": {"DAT [1]": {"system": "DAT", "conditions": "read-out: IC50 as DAT reuptake inhibitor; 3,4-dichloro-α-PVP series; cited from earlier work"}, "DAT [2]": {"target": "DAT (Rattus norvegicus, UniProt P23977)", "sequence (P23977 whole entry)": "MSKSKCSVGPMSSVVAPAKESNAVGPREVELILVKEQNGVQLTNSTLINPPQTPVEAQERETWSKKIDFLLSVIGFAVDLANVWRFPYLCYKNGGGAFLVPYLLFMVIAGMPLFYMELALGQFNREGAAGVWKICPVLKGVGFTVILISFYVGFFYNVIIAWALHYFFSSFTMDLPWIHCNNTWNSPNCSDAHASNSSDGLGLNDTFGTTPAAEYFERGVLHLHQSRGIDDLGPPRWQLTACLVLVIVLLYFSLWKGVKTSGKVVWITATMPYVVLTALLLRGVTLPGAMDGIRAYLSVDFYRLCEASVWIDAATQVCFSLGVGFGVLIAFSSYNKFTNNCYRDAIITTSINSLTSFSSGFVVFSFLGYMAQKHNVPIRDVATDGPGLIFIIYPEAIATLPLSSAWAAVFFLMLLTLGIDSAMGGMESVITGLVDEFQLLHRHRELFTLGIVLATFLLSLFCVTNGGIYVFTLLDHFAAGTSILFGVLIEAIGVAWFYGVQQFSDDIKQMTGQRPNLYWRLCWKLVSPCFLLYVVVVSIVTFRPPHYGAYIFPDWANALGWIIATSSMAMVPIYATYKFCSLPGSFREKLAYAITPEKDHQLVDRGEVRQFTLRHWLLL", "test": "Inhibition of [3H]dopamine uptake in rat caudate synaptosomes", "assay_type": "biochemical", "conditions": "for Fold decrease in DAT potency relative to comparator compound: 8 vs 7, 15 vs 9, 16 vs 7, 17 vs 10"}, "[3]": {"conditions": "read-out: IC50, nM (SD), inhibition at DAT, 5 nM [3H]dopamine uptake, rat caudate synaptosomes, mean ± SD, n = 3"}}, "note": "Where a name gives a salt, the structure may show the parent alone. Read-outs that look alike come from different tables or passages of the source."}
{"smiles": "CCCC(C(=O)c1ccc(Cl)c(Cl)c1)N1CCCC1", "note": "(stereo not drawn) [3,4-dichloro-α-PVP]", "values": [{"measurement": "IC50", "setting": "DAT [1]", "value": 43, "unit": "nM"}]}
{"smiles": "CCCC(C(=O)c1ccccc1)N1CCCC1", "note": "(stereo not drawn) [compound 7, α-Pyrrolidinovalerophenone, reference compound]", "values": [{"measurement": "IC50", "setting": "DAT [2]; [3]", "value": 17.5, "unit": "nM"}]}
{"smiles": "O=C(CN1CCCC1)c1ccccc1.O=C(O)C(=O)O", "note": "[compound 8, 2-(1-Pyrolidinyl)-1-acetophenone Oxalate]", "values": [{"measurement": "Fold decrease in DAT potency relative to comparator compound", "setting": "DAT [2]", "value": 185, "unit": "fold"}, {"measurement": "IC50", "setting": "DAT [2]; [3]", "value": 3250, "unit": "nM"}]}
{"smiles": "CC(C)C(C(=O)c1ccccc1)N1CCCC1", "note": "(centres unmarked) [compound 11]", "values": [{"measurement": "IC50", "setting": "DAT [2]; [3]", "value": 92.3, "unit": "nM"}]}
{"smiles": "CCCCC(C(=O)c1ccccc1)N1CCCC1", "note": "(centres unmarked) [compound 12, 1-Phenyl-2-(pyrrolidin-1-yl)hexanone Oxalate]", "values": [{"measurement": "IC50", "setting": "DAT [2]; [3]", "value": 11.6, "unit": "nM"}]}
{"smiles": "O=C(c1ccccc1)C(C1CCCC1)N1CCCC1", "note": "(centres unmarked) [compound 13, 2-Cyclopentyl-1-phenyl-2-(pyrrolidin-1-yl)ethanone Hydrochloride]", "values": [{"measurement": "IC50", "setting": "DAT [2]", "value": 17.1, "unit": "nM"}]}
{"smiles": "O=C(c1ccccc1)C(C1CCCCC1)N1CCCC1", "note": "(centres unmarked) [compound 14, 2-Cyclohexyl-1-phenyl-2-(pyrrolidin-1-yl)ethanone Hydrochloride]", "values": [{"measurement": "IC50", "setting": "DAT [2]", "value": 8.3, "unit": "nM"}]}
{"smiles": "CCCC(C(=O)c1ccccc1)N1CCCCC1", "note": "(centres unmarked) [compound 16, 1-Phenyl-2-(piperidin-1-yl)pentan-1-one Hydrochloride]", "values": [{"measurement": "IC50", "setting": "DAT [2]", "value": 128, "unit": "nM"}]}
{"smiles": "O=C(O)C(=O)O.O=C1c2ccccc2CCC1N1CCCC1", "note": "(centres unmarked) [compound 17, 2-(Pyrrolidin-1-yl)-3,4-dihydronaphthalen-1(2H)-one Oxalate]", "values": [{"measurement": "IC50", "setting": "DAT [2]", "value": 12900, "unit": "nM"}, {"measurement": "Fold decrease in DAT potency relative to comparator compound", "setting": "DAT [2]", "value": 200, "unit": "fold"}]}
